# Experimental data as given in US9944639B2, “Quinolizinone derivatives as PI3K inhibitors” (Lupin Limited, priority 2014, dated 2018).
# Target: T1, PI3Kδ (Homo sapiens, UniProt O00329)
# T1 construct: endogenous in cells; host or cells: Raji cells
# Assay: Cell Based Assay for PI3Kδ (AKT phosphorylation, AlphaScreen SureFire, anti-IgM stimulated Raji cells)
# Conditions: compounds 1 h, anti-IgM (3 μg/mL) 30 min, phosphorylation of AKT, read-out: PI3Kδ inhibition IC50
# Protocol: [formula] C) Cell Based Assay for PI3Kδ
# Raji cells were maintained in RPMI-1640 (Sigma) supplemented with 10% fetal bovine serum (heat inactivated) (FBS, Sigma), 100 U penicillin/mL, and […] streptomycin and incubated at 37° C. and 5% CO2. Cells were centrifuged and resuspended in a complete medium. The required numbers of cells were transferred to a tissue culture flask containing medium without serum for 1 h at 37° C., 5% CO2. Following 1 h serum starvation, cells were centrifuged and resuspended in Hank's Balanced Salt Solution (HBSS, Sigma) and seeded in at a density of 1 million cells/well in 96-well clear bottom plates. The cells were treated with test compounds for 1 h at 37° C., 5% CO2. Cells were then stimulated with anti-IgM (3 μg/mL) for 30 min. After Stimulation, cells were lysed with 15 μL of 5× lysis buffer and the plate was shaken on an orbital plate shaker at approximately 300 rpm for 10 min. AlphaScreen® SureFire® Cell-based Assay (Perkin-Elmer, Waltham, Mass., USA) was performed to measure phosphorylation of AKT, in the cells according to the manufacturer's instructions. The luminescence was measured using an alpha technology-compatible plate reader BMG Labtech, Germany) at 520-620 nm. Percentage inhibition was calculated according to formula: […]
# IC50 values were calculated by plotting % inhibition against the respective concentrations of test compounds using GraphPad Prism 5.
# T1 sequence (O00329 whole entry): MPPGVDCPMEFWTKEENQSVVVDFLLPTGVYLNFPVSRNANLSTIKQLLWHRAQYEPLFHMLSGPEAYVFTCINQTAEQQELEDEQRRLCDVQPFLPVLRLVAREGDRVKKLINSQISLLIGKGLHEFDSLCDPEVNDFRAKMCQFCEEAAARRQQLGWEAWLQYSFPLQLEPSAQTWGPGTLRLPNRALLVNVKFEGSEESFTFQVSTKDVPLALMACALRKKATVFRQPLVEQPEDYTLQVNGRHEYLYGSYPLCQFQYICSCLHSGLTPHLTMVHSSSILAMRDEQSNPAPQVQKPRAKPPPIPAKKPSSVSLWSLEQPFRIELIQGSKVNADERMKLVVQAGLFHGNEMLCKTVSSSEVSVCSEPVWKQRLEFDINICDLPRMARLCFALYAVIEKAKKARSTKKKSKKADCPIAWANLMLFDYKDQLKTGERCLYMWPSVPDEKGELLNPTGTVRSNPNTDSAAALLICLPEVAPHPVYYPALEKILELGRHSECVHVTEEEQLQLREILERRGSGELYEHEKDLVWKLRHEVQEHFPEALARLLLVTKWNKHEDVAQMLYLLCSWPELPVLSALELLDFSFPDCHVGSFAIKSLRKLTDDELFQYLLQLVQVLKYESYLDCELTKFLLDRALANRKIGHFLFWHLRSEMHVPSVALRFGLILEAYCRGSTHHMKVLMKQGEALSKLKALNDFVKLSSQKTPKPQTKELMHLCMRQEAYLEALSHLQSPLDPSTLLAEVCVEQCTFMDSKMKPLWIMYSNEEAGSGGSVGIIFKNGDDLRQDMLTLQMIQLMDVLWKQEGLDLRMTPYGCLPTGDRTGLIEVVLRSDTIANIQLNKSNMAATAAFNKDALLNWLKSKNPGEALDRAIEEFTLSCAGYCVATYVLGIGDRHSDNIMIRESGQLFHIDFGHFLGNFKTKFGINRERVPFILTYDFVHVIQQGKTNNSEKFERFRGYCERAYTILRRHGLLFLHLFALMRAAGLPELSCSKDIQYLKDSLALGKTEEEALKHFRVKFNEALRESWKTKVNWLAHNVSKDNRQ
# T1 sequence (P27986 whole entry partner): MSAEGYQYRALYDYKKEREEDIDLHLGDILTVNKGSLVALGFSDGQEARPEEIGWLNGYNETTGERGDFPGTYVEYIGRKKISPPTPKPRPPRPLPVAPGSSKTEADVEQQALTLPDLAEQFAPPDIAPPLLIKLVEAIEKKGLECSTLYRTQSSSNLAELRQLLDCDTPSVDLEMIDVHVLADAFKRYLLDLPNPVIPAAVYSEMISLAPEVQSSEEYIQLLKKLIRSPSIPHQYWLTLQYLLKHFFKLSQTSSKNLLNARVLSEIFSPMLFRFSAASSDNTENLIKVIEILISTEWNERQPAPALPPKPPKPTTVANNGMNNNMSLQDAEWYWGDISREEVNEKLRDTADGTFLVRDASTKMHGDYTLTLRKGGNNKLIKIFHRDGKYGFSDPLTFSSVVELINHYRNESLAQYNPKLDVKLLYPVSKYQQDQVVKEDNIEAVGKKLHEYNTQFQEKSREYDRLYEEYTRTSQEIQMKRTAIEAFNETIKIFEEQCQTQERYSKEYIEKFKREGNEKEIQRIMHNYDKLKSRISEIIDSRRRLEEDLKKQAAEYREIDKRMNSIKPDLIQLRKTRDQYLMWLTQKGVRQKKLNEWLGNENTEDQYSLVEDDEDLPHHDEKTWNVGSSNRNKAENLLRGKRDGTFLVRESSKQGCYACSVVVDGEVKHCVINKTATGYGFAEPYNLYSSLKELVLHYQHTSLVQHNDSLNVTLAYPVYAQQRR
row,Structure (SMILES),IC50
1,"C[C@H](Nc1nc(N)nc2[nH]cnc12)c1cc2ccc(F)cn2c(=O)c1-c1cc(F)cc(F)c1 [Compound 51, (S)-2-(1-((2-amino-9H-purin-6-yl)amino)ethyl)-3-(3,5-difluorophenyl)-7-fluoro-4H-quinolizin-4-one]",11 to 50 nM
2,"CC(c1cc2ccc(F)cn2c(=O)c1-c1ccccc1)n1nc(-c2cc(O)cc(F)c2)c2c(N)ncnc21 (stereo not shown) [Compound 59, 2-(1-(4-amino-3-(3-fluoro-5-hydroxyphenyl)-1H-pyrazolo[3,4-d]pyrimidin-1-yl)ethyl)-7-fluoro-3-phenyl-4H-quinolizin-4-one]",0.1 to 10 nM
3,"CC(c1cc2ccc(F)cn2c(=O)c1-c1ccccc1)n1nc(-c2ccc(O)c(F)c2)c2c(N)ncnc21 (stereo not shown) [Compound 60, 2-(1-(4-amino-3-(3-fluoro-4-hydroxyphenyl)-1H-pyrazolo[3,4-d]pyrimidin-1-yl)ethyl)-7-fluoro-3-phenyl-4H-quinolizin-4-one]",11 to 50 nM
4,"CC(c1cc2ccc(F)cn2c(=O)c1-c1ccccc1)n1nc(-c2ccc(F)c(O)c2)c2c(N)ncnc21 (stereo not shown) [Compound 61, 2-(1-(4-amino-3-(4-fluoro-3-hydroxyphenyl)-1H-pyrazolo[3,4-d]pyrimidin-1-yl)ethyl)-7-fluoro-3-phenyl-4H-quinolizin-4-one]",0.1 to 10 nM
5,"CC(c1cc2ccc(F)cn2c(=O)c1-c1ccccc1)n1nc(-c2cccc(O)c2)c2c(N)ncnc21 (stereo not shown) [Compound 62, 2-(1-(4-amino-3-(3-hydroxyphenyl)-1H-pyrazolo[3,4-d]pyrimidin-1-yl)ethyl)-7-fluoro-3-phenyl-4H-quinolizin-4-one]",0.1 to 10 nM
6,"CC(c1cc2ccc(F)cn2c(=O)c1-c1ccccc1)n1cc(-c2cc(O)cc(F)c2)c2c(N)ncnc21 (stereo not shown) [Compound 63, 2-(1-(4-amino-5-(3-fluoro-5-hydroxyphenyl)-7H-pyrrolo[2,3-d]pyrimidin-7-yl)ethyl)-7-fluoro-3-phenyl-4H-quinolizin-4-one]",0.1 to 10 nM
7,"CC(c1cc2ccc(F)cn2c(=O)c1-c1ccccc1)n1nc(-c2ccc3c(c2)CC(=O)N3)c2c(N)ncnc21 (stereo not shown) [Compound 65, 2-(1-(4-amino-3-(2-oxoindolin-5-yl)-1H-pyrazolo[3,4-d]pyrimidin-1-yl)ethyl)-7-fluoro-3-phenyl-4H-quinolizin-4-one]",51 to 250 nM

# The remaining lines, values ahead:
row,IC50,Structure (SMILES)
1,0.1 to 10 nM,"C[C@H](Nc1ncnc2scnc12)c1cc2ccc(F)cn2c(=O)c1-c1ccccc1 [Compound 52, (S)-7-fluoro-3-phenyl-2-(1-(thiazolo[5,4-d]pyrimidin-7-ylamino)ethyl)-4H-quinolizin-4-one]"
2,0.1 to 10 nM,"C[C@H](Nc1nc(N)nc(Cl)c1C#N)c1cc2ccc(F)cn2c(=O)c1-c1ccccc1 [Compound 53, (S)-2-amino-4-chloro-6-((1-(7-fluoro-4-oxo-3-phenyl-4H-quinolizin-2-yl)ethyl)amino)pyrimidine-5-carbonitrile]"
3,0.1 to 10 nM,"C[C@H](Nc1ncnc2cccnc12)c1cc2ccc(F)cn2c(=O)c1-c1ccccc1 [Compound 54, (S)-7-fluoro-3-phenyl-2-(1-(pyrido[3,2-d]pyrimidin-4-ylamino)ethyl)-4H-quinolizin-4-one]"
